Reference: patent US8338426B2, “Piperazinyl derivatives useful as modulators of the neuropeptide Y2 receptor” (Janssen Pharmaceutica NV, priority 2007, dated 2012)

Experiments:
rat Y2 receptor = target: T1, rat Y2 receptor (Rattus norvegicus, UniProt Q9ERC0); assay: Neuropeptide Y2 radioligand binding assay, [125I]PYY, rat hippocampus membranes; conditions: read-out: rY2 pKi (converted)
T1 construct: membranes from rat or mouse hippocampus were prepared; from tissue; host or cells: rat hippocampus membranes
T1 sequence (Q9ERC0 1-381): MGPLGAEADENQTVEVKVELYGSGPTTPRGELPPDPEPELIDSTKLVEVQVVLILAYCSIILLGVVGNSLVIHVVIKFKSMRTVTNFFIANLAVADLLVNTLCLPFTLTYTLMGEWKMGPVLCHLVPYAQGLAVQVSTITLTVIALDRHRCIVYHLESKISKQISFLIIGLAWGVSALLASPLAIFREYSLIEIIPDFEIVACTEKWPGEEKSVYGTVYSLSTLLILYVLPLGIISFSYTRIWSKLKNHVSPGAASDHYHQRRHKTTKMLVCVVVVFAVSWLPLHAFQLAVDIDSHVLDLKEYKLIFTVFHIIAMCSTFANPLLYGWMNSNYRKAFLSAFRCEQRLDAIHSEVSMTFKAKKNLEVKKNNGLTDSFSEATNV
Protocol: Radioligand binding assays for the human and rat/mouse Y2 receptor were performed as described in Bonaventure, P., D. Nepomuceno, C. Mazur, B. Lord, D. A. Rudolph, J. A. Jablonowski, N. I. Carruthers and T. W. Lovenberg, J Pharmacol Exp Ther. 2004, 308, 1130.
KAN-Ts endogenously expressing Y2 receptors were used, for the rat and mouse Y2 receptor, membranes from rat or mouse hippocampus were prepared. Membranes were incubated with [^125I]PYY (80 pM) in the presence or absence of test compound for 1 h at rt. The reaction was stopped by filtration through GF/C filter plates pre-soaked in 0.3% polyethylenimine and subsequently washed with Tris-HCl, 50 mM, 5 mM EDTA buffer. Plates were dried for 1 h in a 55° C. oven, scintillation fluid was added and the radioactivity was counted in a Packard TopCount. Specific binding to the NPY receptor subtypes was determined by radioactivity that was bound in the presence of 1 μM NPY.
Apparent Ki values were calculated as K=IC50/(1+C/KD), where C is concentration of the radioligand and pKi=−log Ki. Data presented below are expressed as mean±S.E.M.

hY2 = target: T2, hY2 (Homo sapiens, UniProt P49146); assay: Ca2+ mobilization assay (FLIPR) in KAN-Ts cells; type: cell-based; conditions: KANT-S cells, inhibition of PYY stimulated Ca2+ increase, read-out: hY2 pKB (converted)
T2 construct: KAN-Ts endogenously expressing Y2 receptors were used; endogenous in cells; host or cells: KAN-Ts cells stably expressing chimeric G proteins
T2 sequence (P49146 1-381): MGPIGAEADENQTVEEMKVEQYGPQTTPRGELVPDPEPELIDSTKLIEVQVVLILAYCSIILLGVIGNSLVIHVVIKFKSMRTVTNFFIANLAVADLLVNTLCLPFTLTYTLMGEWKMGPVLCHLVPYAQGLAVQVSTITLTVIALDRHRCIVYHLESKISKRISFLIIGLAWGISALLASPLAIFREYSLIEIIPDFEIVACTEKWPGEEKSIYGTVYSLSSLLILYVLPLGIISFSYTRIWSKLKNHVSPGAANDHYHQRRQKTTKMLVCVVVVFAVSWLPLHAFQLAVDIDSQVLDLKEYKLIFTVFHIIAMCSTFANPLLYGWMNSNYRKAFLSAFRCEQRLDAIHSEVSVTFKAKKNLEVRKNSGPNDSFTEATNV
Protocol: The assay was performed using the fluorimetric imaging plate reader (FLIPR) format as described in Dautzenberg, F. M., Biochemical Pharmacology 2005, 69, 1493.
KAN-Ts cells stably expressing chimeric G proteins were seeded at a density of 100,000 cells into poly-d-lysine coated 384-well blackwall, clear-bottom microtiter plates (Corning, N.Y.). One day later, the medium was removed and 50 μl loading medium DMEM high glucose, without serum, supplemented with 10 mM HEPES-acid, 0.1% BSA, 5 mM probenecid and 2 μM Fluo-3AM was added. Cells were loaded for 1 h at 37° C., washed twice with 50 μl assay buffer (5 mM HEPES-acid, 140 mM NaCl, 1 mM MgCl2, 5 mM KCl, 10 mM glucose) and then 30 μl assay buffer was added. Cells were further pre-incubated at room temperature before adding agonists or agonists plus antagonists in 20 μl assay buffer and then measured on a T-channel fluorometric imaging plate reader (FLIPR, Molecular Devices, Sunnyvale, Calif.).
Antagonistic potency values were converted to apparent pKB values using a modified Cheng-Prusoff correction. Apparent pKB=−log IC50/1+[conc agonist/EC50]. Data below are expressed as mean±S.E.M.
The in vitro antagonistic properties of the compound of formula (A) were confirmed using Ca^2+ measurement.

[1] = target: T3, Y2 receptor binding sites in rat hippocampus (Rattus norvegicus, UniProt Q9ERC0); assay: Ex vivo Y2 receptor occupancy in rats (autoradiography)
T3 construct: from tissue; host or cells: rat brain sections (hippocampus) after in vivo dosing
T3 sequence (Q9ERC0 1-381): T1 sequence (Q9ERC0 1-381)
Protocol: The pharmacokinetic, blood-brain barrier penetration and ex vivo receptor occupancy studies were performed as described in Bonaventure, P., D. Nepomuceno, C. Mazur, B. Lord, D. A. Rudolph, J. A. Jablonowski, N. I. Carruthers and T. W. Lovenberg, J Pharmacol Exp Ther. 2004, 308, 1130.
The compound of formula (A) was formulated in 20% hydroxypropylbetacyclodextrine. Subcutaneous (SC), oral (PO) or intravenous (IV) dosing was followed by blood sampling via cardiac puncture over a time course. Blood samples consisted of 250 μl samples taken from the heart using a 23-gauge needle into 1.5 ml micro-centrifuge tubes. Brains were removed from the animals and bisected down the midsagittal plane. One hemisphere was frozen on dry ice for ex vivo receptor binding autoradiography and the other was homogenized for LC/MS-MS analysis.
Ex vivo receptor binding autoradiography was performed on brain sections. Twenty-micron-thick coronal sections at the level of the […] regions were collected and incubated for 10 min with 100 pM [^125I]PYY in Krebs-Ringer phosphate buffer (KRP) at pH 7.4 supplemented with 0.1% BSA, 0.05% bacitracin, and 1 μM BIBP-3226 for Y1 receptor occlusion. The sections were not washed prior to incubation and were incubated 10 minutes to avoid dissociation. Nonspecific binding was determined using adjacent sections incubated in the presence of 1 μM unlabelled hNPY. At the end of the incubation, sections were washed 4 times (4 minutes each) in ice cold buffer, dipped in deionized water and rapidly dried under a stream of cold air. Sections were exposed to a Fujifilm Imaging Plate (BAS-MS2025) for 12 hours. The Phosphor Imaging Plate was scanned using a Fuji Bio-Imaging Analyzer System (BAS-5000). The digitized computer images generated by the scanner were visualized and quantified using ImageGauge V3.12 software (Fujifilm).

Ki (rat Y2 receptor): 4.57 nM
Kb (hY2): 2.69 nM
time of maximal receptor binding site occupancy ([1]; rat hippocampus, SC 10 mg/kg): ~1 h
ED50 ([1]; rat hippocampus, SC, t=60 min): 2 mg/kg
receptor occupancy at 10 mg/kg ([1]; rat, 10 mg/kg SC, read-out: maximal ex vivo receptor occupancy): ~100%
Compound: CCN(CC)C(=O)C(c1ccccc1)N1CCN(c2ccc(NC(=O)c3ccccc3-c3cccnc3)cc2F)CC1 (racemic) [Cmpd (A), N-{4-[4-(Diethylcarbamoyl-phenyl-methyl)-piperazin-1-yl]-3-fluoro-phenyl}-2-pyridin-3-yl-benzamide]
